The values below come from PubChem BioAssay (NCI).

Some test systems named below: CCRF-CEM leukemia; HCC-2998 colon; HOP-92 NSCLC; HS 578T breast; K-562 leukemia; NCI-H522 lung; SNB-19 CNS; SW-620 colon; TK-10 renal; UACC-257 melanoma.
Assay in all cases: NCI tumour cell line growth inhibition, 48 h

The structures appear in SMILES notation.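 Method: 48-hour compound exposure of cells in 96-well plates, five concentrations, linear interpolation of endpoints. At the GI50, growth is halved. Definition used: TGI = concentration required for complete inhibition of growth.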

As to `COc1cc(C)cc(C(=O)/C=C/c2ccccc2)c1O`, the TGI in the assay with CCRF-CEM leukemia is 84.1 µM; in the assay on HCC-2998 colon, 38 µM; in the assay on HOP-92 NSCLC, 31.2 µM; in the assay on HS 578T breast, greater than 100 µM; in the assay on K-562 leukemia it was greater than 100 µM; in the assay with NCI-H522 lung it was 50.8 µM. The TGI in the assay with SNB-19 CNS was 38.5 µM; in the assay on SW-620 colon it was 52.3 µM; with TK-10 renal, 35.8 µM; in the assay on UACC-257 melanoma, 37.7 µM.

In the case of `CN1CCN(CCCOc2ccc3nc(Nc4ccc(F)c(F)c4)ccc3c2)CC1`, the GI50 was 1950 nM in the assay on CCRF-CEM leukemia; 1710 nM with HCC-2998 colon; 1100 nM in the assay with HOP-92 NSCLC; 1820 nM in the assay with HS 578T breast; 1370 nM in the assay on K-562 leukemia; 1440 nM with NCI-H522 lung. The GI50 was 2.08 µM with SNB-19 CNS, 1820 nM in the assay on SW-620 colon, 2000 nM with TK-10 renal and 1.76 µM in the assay with UACC-257 melanoma. The TGI with CCRF-CEM leukemia stood at 11.6 µM; with HCC-2998 colon, 3.31 µM; in the assay on HOP-92 NSCLC, 3.6 µM; in the assay on HS 578T breast, 5.43 µM; with K-562 leukemia, 5.25 µM; with NCI-H522 lung, 3.1 µM. The TGI in the assay with SNB-19 CNS came out at 4.79 µM; with SW-620 colon it was 3.71 µM; in the assay with TK-10 renal, 4.23 µM; in the assay with UACC-257 melanoma, 3.27 µM.

Turning to `Fc1ccc2c(c1)C1=C(CCC2)C(c2ccc(Cl)cc2)NC(=S)N1` (stereo not drawn), the GI50 with CCRF-CEM leukemia is 31800 nM; in the assay with HCC-2998 colon, 43200 nM; with HOP-92 NSCLC, 16700 nM; in the assay with HS 578T breast, 50500 nM; with K-562 leukemia, 32400 nM; in the assay with NCI-H522 lung, 13100 nM. The GI50 in the assay with SNB-19 CNS was 77.9 µM; in the assay on SW-620 colon, 39100 nM; with TK-10 renal, 12600 nM; with UACC-257 melanoma, 21.5 µM. Further, the TGI with CCRF-CEM leukemia is greater than 100 µM; in the assay with HCC-2998 colon it was greater than 100 µM; with HOP-92 NSCLC, 73.9 µM; in the assay on HS 578T breast it was greater than 100 µM; in the assay with K-562 leukemia, greater than 100 µM; in the assay on NCI-H522 lung, 94 µM. In addition, the TGI with SNB-19 CNS was greater than 100 µM; in the assay with SW-620 colon, greater than 100 µM; in the assay on TK-10 renal, 80.3 µM; in the assay with UACC-257 melanoma, 70 µM.

In the case of `CC(=O)c1c[nH]c2ccc(-c3ccnc(Nc4ccc(NC(=O)C5CCCC5)c(CN5CCOCC5)c4)n3)cc12`, the GI50 in the assay with CCRF-CEM leukemia is 29.4 nM; in the assay with HCC-2998 colon it was 44.4 nM; in the assay with HOP-92 NSCLC, 28.4 nM; with HS 578T breast, 20.7 nM; in the assay on K-562 leukemia, 41 nM; with NCI-H522 lung, 43.9 nM. The GI50 is 0.041 µM in the assay on SNB-19 CNS, 38.7 nM with SW-620 colon, 27.4 nM with TK-10 renal and 0.0349 µM in the assay on UACC-257 melanoma. Further, the TGI in the assay on HCC-2998 colon was 0.6 µM; with HOP-92 NSCLC, 0.365 µM; in the assay with HS 578T breast, 0.105 µM; with K-562 leukemia, greater than 100 µM; with NCI-H522 lung, 0.309 µM; with SNB-19 CNS it was 7.96 µM. Moreover, the TGI in the assay on SW-620 colon worked out at 0.551 µM; in the assay on TK-10 renal it was 0.406 µM; with UACC-257 melanoma, 0.175 µM.

For `O=C1NC(=O)C(=Cc2cn(Cc3ccccc3)c3ccccc23)C(=O)N1`, the GI50 in the assay on CCRF-CEM leukemia is 20500 nM; with HCC-2998 colon, 10900 nM; with HOP-92 NSCLC, 1500 nM; in the assay with HS 578T breast, 8710 nM; in the assay with K-562 leukemia, 4230 nM; with NCI-H522 lung, 13100 nM. In addition, the GI50 with SNB-19 CNS was 16.2 µM; with SW-620 colon it was 12100 nM; in the assay on TK-10 renal, 2160 nM; in the assay on UACC-257 melanoma, 7.07 µM. Also, the TGI with CCRF-CEM leukemia was greater than 67.2 µM; in the assay on HCC-2998 colon, 29.5 µM; with HOP-92 NSCLC it was 19.9 µM; in the assay on HS 578T breast, 29.3 µM; in the assay with K-562 leukemia it was greater than 48.6 µM; with NCI-H522 lung it was 37.2 µM. Further, the TGI is 38.9 µM with SNB-19 CNS, 28.9 µM in the assay with SW-620 colon, 8.58 µM in the assay with TK-10 renal and 35.1 µM in the assay with UACC-257 melanoma.

As to `COC1=C(OC)C(=O)C(C/C=C(\C)CC/C=C(\C)CC/C=C(\C)CC/C=C(\C)CC/C=C(\C)CC/C=C(\C)CC/C=C(\C)CC/C=C(\C)CC/C=C(\C)CCC=C(C)C)=C(C)C1=O`, the GI50 in the assay on CCRF-CEM leukemia, in the assay on HCC-2998 colon, with HOP-92 NSCLC, in the assay with HS 578T breast, with K-562 leukemia and with NCI-H522 lung was greater than 100000 nM each time. Besides, the GI50 was greater than 100 µM in the assay with SNB-19 CNS, greater than 100000 nM in the assay on SW-620 colon, greater than 100000 nM in the assay with TK-10 renal and greater than 100 µM in the assay with UACC-257 melanoma. Moreover, the TGI in the assay on CCRF-CEM leukemia, in the assay with HCC-2998 colon, in the assay with HOP-92 NSCLC, with HS 578T breast, in the assay with K-562 leukemia and in the assay with NCI-H522 lung was greater than 100 µM each time. In addition, the TGI in the assay on SNB-19 CNS, in the assay with SW-620 colon, with TK-10 renal and in the assay on UACC-257 melanoma was greater than 100 µM in each case.

Regarding `COc1ccc2nc(C)cc(Sc3nc4ccccc4s3)c2c1`, the GI50 in the assay on CCRF-CEM leukemia was 377 nM; in the assay on HCC-2998 colon, 93.8 nM; in the assay on HOP-92 NSCLC it was 475 nM; in the assay on HS 578T breast it was 923 nM; in the assay on K-562 leukemia, 1210 nM; with NCI-H522 lung, 1310 nM. Moreover, the GI50 is 3.46 µM in the assay with SNB-19 CNS, 1510 nM in the assay on SW-620 colon, 1400 nM in the assay with TK-10 renal and 4.25 µM in the assay on UACC-257 melanoma. Besides, the TGI in the assay with CCRF-CEM leukemia was 2.65 µM; with HCC-2998 colon it was 2.54 µM; in the assay with HOP-92 NSCLC, 6.25 µM; with HS 578T breast, 3.57 µM; in the assay on NCI-H522 lung, 3.15 µM; in the assay on SNB-19 CNS, 28.8 µM. Moreover, the results for the TGI in the assay with SW-620 colon, with TK-10 renal and in the assay on UACC-257 melanoma were 2.98 µM, 5.47 µM and 25.5 µM, respectively.

As to `COc1ccc2c(c1O)[C@@]13CCCC=C1[C@@H](C2)[N+](C)(C)CC3`, the TGI in the assay with CCRF-CEM leukemia, with HCC-2998 colon, with HOP-92 NSCLC, with HS 578T breast, in the assay on K-562 leukemia and in the assay on NCI-H522 lung was greater than 100 µM throughout. For the same compound, the TGI with SNB-19 CNS, with SW-620 colon, in the assay on TK-10 renal and in the assay on UACC-257 melanoma was greater than 100 µM throughout.
